Conditions in all cases: read-out: pI50 (converted)
Test [1] deals with Scenedesmus acutus. In words: Peroxidizing phytotoxicity against Scenedesmus acutus assessed as ethane production after 20 hr. It is filed as functional, organism-based.
Test [2] has as its system Scenedesmus acutus. In words: Phytotoxicity against Scenedesmus acutus assessed as reduction in chlorophyll content by spectroscopy. It is filed as functional, organism-based.
The subject of test [3] is Scenedesmus acutus. In words: Growth inhibition of Scenedesmus acutus assessed as changes in packed cell volume. The test is classed as functional, organism-based.
Test [4] addresses T1, Protoporphyrinogen IX oxidase (Zea mays, UniProt Q9FYV8).
T1 sequence (Q9FYV8 whole entry): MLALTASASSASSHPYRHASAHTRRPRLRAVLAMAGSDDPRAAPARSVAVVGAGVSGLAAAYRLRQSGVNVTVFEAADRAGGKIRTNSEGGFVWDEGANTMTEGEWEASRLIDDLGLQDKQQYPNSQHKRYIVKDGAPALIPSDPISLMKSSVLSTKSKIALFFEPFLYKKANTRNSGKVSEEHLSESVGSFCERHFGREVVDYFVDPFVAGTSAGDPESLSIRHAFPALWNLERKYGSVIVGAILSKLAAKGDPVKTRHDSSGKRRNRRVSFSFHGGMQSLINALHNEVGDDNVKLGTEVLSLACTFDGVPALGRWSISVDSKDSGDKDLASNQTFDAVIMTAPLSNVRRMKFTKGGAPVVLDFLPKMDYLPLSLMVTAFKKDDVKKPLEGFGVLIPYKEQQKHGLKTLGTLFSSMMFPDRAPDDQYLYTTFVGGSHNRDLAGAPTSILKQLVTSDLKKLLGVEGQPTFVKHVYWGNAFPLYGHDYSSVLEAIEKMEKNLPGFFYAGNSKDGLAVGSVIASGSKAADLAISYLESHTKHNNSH
In words: Inhibition of protoporphyrinogen IX oxidase in Zea mays cv. Anjou (maize) seedlings homogenates assessed as protoporphyrinogen IX formation by spectrophotometry.

Structures are written as SMILES.

As for `C#CCOc1cc(N2C(=O)C3=C(CCCC3)C2=O)ccc1Cl`, the IC50 in test [1] is 537 nM; in test [2] it was 79.4 nM; in test [3] it was 100 nM.
With `C#CCOc1cc(N2C(=O)C3=C(CCCC3)C2=O)c(F)cc1Cl`, the IC50 in test [1] was 141 nM; in test [4], 1.82 nM; in test [2], 15.8 nM; in test [3] it was 15.8 nM.
`O=C1C2=C(CCCC2)C(=O)N1c1ccc(Cl)cc1F`: the IC50 is 240 nM in test [1], 3.72 nM in test [4], 24.5 nM in test [2] and 37.2 nM in test [3].
The like results for `O=C(O)c1cc(N2C(=O)C3=C(CCCC3)C2=O)c(F)cc1Cl` were, in that order, 3160 nM, 380 nM, 759 nM and 1000 nM.
On the same counts, the results for `COC(=O)c1cc(N2C(=O)C3=C(CCCC3)C2=O)c(F)cc1Cl` are 170 nM, 11.2 nM, 110 nM and 67.6 nM.
The like results for `CCOC(=O)c1cc(N2C(=O)C3=C(CCCC3)C2=O)c(F)cc1Cl` were, in that order, 87.1 nM, 4.17 nM, 100 nM and 57.5 nM.
Take `CCCOC(=O)c1cc(N2C(=O)C3=C(CCCC3)C2=O)c(F)cc1Cl`: the IC50 in test [1] was 66.1 nM; in test [4], 3.89 nM; in test [2], 89.1 nM; in test [3] it was 33.1 nM.
The like results for `CC(C)OC(=O)c1cc(N2C(=O)C3=C(CCCC3)C2=O)c(F)cc1Cl` were, in that order, 89.1 nM, 1.38 nM, 57.5 nM and 13.8 nM.
On the same counts, the results for `CCCCOC(=O)c1cc(N2C(=O)C3=C(CCCC3)C2=O)c(F)cc1Cl` are 141 nM, 8.91 nM, 67.6 nM and 126 nM.
Regarding `CC(C)COC(=O)c1cc(N2C(=O)C3=C(CCCC3)C2=O)c(F)cc1Cl`, the IC50 was 407 nM in test [1], 4.9 nM in test [4], 33.1 nM in test [2] and 100 nM in test [3].
`CCC(C)OC(=O)c1cc(N2C(=O)C3=C(CCCC3)C2=O)c(F)cc1Cl` (configuration not stated): the IC50 in test [1] is 74.1 nM; in test [4] it was 2.63 nM; in test [2] it was 24.5 nM; in test [3], 60.3 nM.
On the same counts, the results for `O=C(O)c1cc(N2C(=O)C3=C(CCCC3)C2=O)ccc1Cl` are more than 100000 nM, 1860 nM, more than 100000 nM and more than 100000 nM.
The like results for `COC(=O)c1cc(N2C(=O)C3=C(CCCC3)C2=O)ccc1Cl` were, in that order, 1620 nM, 8.91 nM, 2000 nM and 1780 nM.
For `CCOC(=O)c1cc(N2C(=O)C3=C(CCCC3)C2=O)ccc1Cl`, the IC50 was 2140 nM in test [1], 3.72 nM in test [4], 1380 nM in test [2] and 1910 nM in test [3].
On the same counts, the results for `CCCOC(=O)c1cc(N2C(=O)C3=C(CCCC3)C2=O)ccc1Cl` are 661 nM, 2.19 nM, 1860 nM and 1120 nM.
Regarding `CC(C)OC(=O)c1cc(N2C(=O)C3=C(CCCC3)C2=O)ccc1Cl`, the IC50 in test [1] is 182 nM; in test [2] it was 1000 nM; in test [3] it was 1230 nM.
Regarding `CCCCOC(=O)c1cc(N2C(=O)C3=C(CCCC3)C2=O)ccc1Cl`, the IC50 is 7760 nM in test [1], 9.12 nM in test [4], 3550 nM in test [2] and 6310 nM in test [3].
The like results for `CC(C)COC(=O)c1cc(N2C(=O)C3=C(CCCC3)C2=O)ccc1Cl` were, in that order, 15500 nM, 4.79 nM, 759 nM and 977 nM.
The like results for `CCC(C)OC(=O)c1cc(N2C(=O)C3=C(CCCC3)C2=O)ccc1Cl` (configuration not stated) were, in that order, 9770 nM, 2.51 nM, 794 nM and 1100 nM.
On the same counts, the results for `CC(C)(C)OC(=O)c1cc(N2C(=O)C3=C(CCCC3)C2=O)ccc1Cl` are more than 100000 nM, 28.2 nM, 12900 nM and 81300 nM.
As for `CCCCCOC(=O)c1cc(N2C(=O)C3=C(CCCC3)C2=O)ccc1Cl`, the IC50 in test [1] is 5370 nM; in test [4] it was 7.59 nM; in test [2], 9330 nM; in test [3], 4470 nM.
On the same counts, the results for `CCCCCCCCOC(=O)c1cc(N2C(=O)C3=C(CCCC3)C2=O)ccc1Cl` are more than 100000 nM, 25.1 nM, more than 100000 nM and more than 100000 nM.
With `COC(=O)c1cc(Oc2ccc(C(F)(F)F)cc2Cl)ccc1[N+](=O)[O-]` [ACIFLUORFEN-METHYL], the IC50 is 23.4 nM in test [1], 2.19 nM in test [4], 61.7 nM in test [2] and 70.8 nM in test [3].
On the same counts, the results for `O=C(O)c1cc(Oc2ccc(C(F)(F)F)cc2Cl)ccc1[N+](=O)[O-]` [ACIFLUORFEN] are 1020 nM, 200 nM, 1860 nM and 5750 nM.
For `O=C1C2=C(CCCC2)C(=O)N1c1ccc(Cl)cc1` [CHLOROPHTHALIUM], the figures for the IC50 in test [1], in test [2] and in test [3] were 912 nM, 79.4 nM and 100 nM, respectively.

Values taken from ChEMBL document CHEMBL3044554, “Comparison of Phytotoxicities between 4-Fluorinated and Non-fluorinated 2-Chloro-5-(3, 4, 5, 6-tetrahydrophthalimido)benzoates” (J Pestic Sci, 1999).
